# In US10214512B2, “Factor XIA inhibitors” (MERCK SHARP & DOHME CORP., priority 2015, dated 2019):
# Read-outs that look alike come from different tables or passages of the source.
# Tests used:
# [1] = molecular target: purified human Factor XIa (Homo sapiens (Human), UniProt P03951); test: Factor XIa Assay; format: biochemical; details: purified human Factor XIa 40 pM; substrate Z-Gly-Pro-Arg-AFC 100 μM; 50 mM HEPES pH 7.4; read-out: Human FXIa Ki
# Experimental: (§1) The effectiveness of a compound of the present invention as an inhibitor of Coagulation Factor XIa can be determined using a relevant purified serine protease, and an appropriate synthetic substrate. The rate of hydrolysis of the chromogenic or fluorogenic substrate by the relevant serine protease was measured both in the absence and presence of compounds of the present invention. Assays were conducted at rt or at 37° C. […] A decrease in the rate of fluorescence change in the presence of inhibitor is indicative of enzyme inhibition. Such methods are known to one skilled in the art. The results of this assay are expressed as the inhibitory constant, Ki.
# Factor XIa determinations were made in 50 mM HEPES buffer at pH 7.4 containing 150 mM NaCl, 5 mM CaCl2, and 0.1% PEG 8000 (polyethylene glycol; JT Baker or Fisher Scientific). Determinations were made using purified human Factor XIa at a final concentration of 40 pM (Sekisui Diagnostics) and he synthetic substrate, Z-Gly-Pro-Arg-AFC, TFA salt (Sigma #C0980) at a concentration of 100 μM.
# Times required to achieve equilibration between enzyme and inhibitor were determined in control experiments. Initial velocities of product formation in the absence (Vo) or presence of inhibitor (Vi) were measured. Assuming competitive inhibition, and that unity is negligible compared Km/[S], [I]/e, and [I]/e (where [S], [I], and e respectively represent the total concentrations, of substrate, inhibitor and enzyme), the equilibrium constant (Ki) for dissociation of the inhibitor from the enzyme can be obtained from the dependence of Vo/Vi on [I] shown in the following equation.
# [2] = molecular target: purified Human plasma Kallikrein (Homo sapiens (Human), UniProt P03952); test: Kallikrein Assay; format: biochemical
# Experimental: as §1, with “Kallikrein” for “Coagulation Factor XIa”
# Kallikrein determinations were made in 50 mM HEPES buffer at pH 7.4 containing 150 mM NaCl, 5 mM CaCl2, and 0.1% PEG 8000 (polyethylene glycol; Fisher Scientific). Determinations were made using purified Human plasma Kallikrein at a final concentration of 0.5 nM (Enzyme Research Laboratories) and the synthetic substrate, Acetyl-K-P-R-AFC (Sigma # C6608) at a concentration of […].
# Times required to achieve equilibration between enzyme and inhibitor were determined in control experiments. […] IC50 was determined by inflection point from a four parameter logistic curve fit. Ki was calculated using the Cheng Prusoff equation, Ki=IC50/(1+([S]/Km)).
# [3] = purified Human plasma Kallikrein 0.5 nM, substrate Acetyl-K-P-R-AFC, 50 mM HEPES pH 7.4, Ki from IC50 by Cheng Prusoff
# Sequence of purified Human plasma Kallikrein (P03952 391-638): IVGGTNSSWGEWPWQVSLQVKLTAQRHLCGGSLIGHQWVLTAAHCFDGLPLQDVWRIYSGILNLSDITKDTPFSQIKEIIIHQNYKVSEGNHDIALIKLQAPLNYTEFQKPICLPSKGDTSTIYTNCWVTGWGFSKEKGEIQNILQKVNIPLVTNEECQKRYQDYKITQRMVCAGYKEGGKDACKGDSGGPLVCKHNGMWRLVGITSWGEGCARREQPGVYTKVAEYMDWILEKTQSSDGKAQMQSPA
# Sequence of purified Human plasma Kallikrein (P03952 20-390 partner): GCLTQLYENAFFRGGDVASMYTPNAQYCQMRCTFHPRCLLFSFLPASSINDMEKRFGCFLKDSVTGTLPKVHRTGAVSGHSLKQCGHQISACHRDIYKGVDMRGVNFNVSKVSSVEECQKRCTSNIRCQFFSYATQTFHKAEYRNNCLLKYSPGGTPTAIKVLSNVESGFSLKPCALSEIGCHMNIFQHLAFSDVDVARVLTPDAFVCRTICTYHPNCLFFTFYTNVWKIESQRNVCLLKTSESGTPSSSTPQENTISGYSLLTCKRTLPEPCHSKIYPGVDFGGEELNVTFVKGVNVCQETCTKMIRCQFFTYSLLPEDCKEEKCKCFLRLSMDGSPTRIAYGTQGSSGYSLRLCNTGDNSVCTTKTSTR
# Sequence of purified human Factor XIa (P03951 388-625): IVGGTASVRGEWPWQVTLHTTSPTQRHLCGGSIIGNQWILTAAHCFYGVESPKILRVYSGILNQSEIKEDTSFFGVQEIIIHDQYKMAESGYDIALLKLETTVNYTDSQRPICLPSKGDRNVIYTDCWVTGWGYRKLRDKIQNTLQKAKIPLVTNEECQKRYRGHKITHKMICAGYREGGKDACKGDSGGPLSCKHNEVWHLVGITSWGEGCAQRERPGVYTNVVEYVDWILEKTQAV
# Sequence of purified human Factor XIa (P03951 19-387 partner): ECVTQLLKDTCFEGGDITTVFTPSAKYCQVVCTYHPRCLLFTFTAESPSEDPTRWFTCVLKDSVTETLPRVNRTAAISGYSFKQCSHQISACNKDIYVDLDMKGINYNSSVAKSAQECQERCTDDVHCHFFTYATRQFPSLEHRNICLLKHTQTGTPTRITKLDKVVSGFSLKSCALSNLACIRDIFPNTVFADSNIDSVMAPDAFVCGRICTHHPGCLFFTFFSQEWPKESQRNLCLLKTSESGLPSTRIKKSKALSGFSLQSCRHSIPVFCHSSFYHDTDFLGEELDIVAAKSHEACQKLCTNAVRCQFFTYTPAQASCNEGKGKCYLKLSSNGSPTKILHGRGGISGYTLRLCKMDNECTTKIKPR
Structure (SMILES),Ki [1],"Ki [2, 3]",Ki [2]
"O=C1CCCCC(c2ccc(-c3cc(Cl)ccc3-n3cnnn3)cn2)c2ccnc(c2)-c2cc(F)ccc2N1 (stereo not drawn) [Example 56, 9-(5-(5-chloro-2-(1h-tetrazol-1-yl)phenyl)pyridin-2-yl)-25-fluoro-3-aza-1(2,4)-pyridina-2(1,2)-benzenacyclononaphan-4-one]",14.1 nM,149 nM,–
"Nc1ccc2c(c1)NC(=O)CCCCC(c1ccc(-c3c(F)ccc(Cl)c3F)c[n+]1[O-])c1cccc-2c1 (single isomer, unassigned) [Example 43-a, 2-(2^4-amino-4-oxo-3-aza-1(1,3),2(1,2)-dinenzenacyclononaphane-9-yl)-5-(3-chloro-2,6-difluorophenyl)pyridine 1-oxide]",1.7 nM,7 nM,–
"COC(=O)Nc1ccc2c(c1)NC(=O)CCCCC(c1ccc(-c3c(F)ccc(Cl)c3F)c[n+]1[O-])c1cc-2[n+]([O-])cc1F (stereo not drawn) [Example 82, 9-(5-(3-chloro-2,6-difluorophenyl)-1-oxidopyridin-2-yl)-1^5-fluoro-2^4-((methoxycarbonyl)amino)-4-oxo-3-aza-1(2,4)-pyridin-1-iuma-2(1,2)-benzenacyclononaphane 1^1-oxide]",3.7 nM,9.58 nM,–
"O=C1CCCC[C@H](c2ccc(-c3c(F)ccc(Cl)c3F)c[n+]2[O-])c2cccc(c2)-c2ccc(Nc3cccnc3)cc2N1 [Example 47, 5-(3-chloro-2,6-difluorophenyl)-2-(4-oxo-2^4-(pyridin-3-ylamino)-3-aza-1(1,3),2(1,2)-dinenzenacyclononaphane-9-yl)pyridine 1-oxide]",1.89 nM,5.01 nM,–
"CC(C)(C)OCCOC(=O)Nc1ccc2c(c1)NC(=O)CCCC[C@H](c1ccc(-c3c(F)ccc(Cl)c3F)c[n+]1[O-])c1cccc-2c1 [Example 45, (S)-2-(2^4-(((2-(tert-butoxy)ethoxy)carbonyl)amino)-4-oxo-3-aza-1(1,3),2(1,2)-dinenzenacyclononaphane-9-yl)-5-(3-chloro-2,6-difluorophenyl)pyridine 1-oxide]",0.24 nM,0.44 nM,–
"COC(=O)Nc1ccc2c(c1)NC(=O)CCCC[C@H](c1ccc(-c3c(F)ccc(Cl)c3F)c[n+]1[O-])c1cc-2ncn1 (single isomer, unassigned) [Example 75]",2.7 nM,8.42 nM,–
"COC(=O)Nc1ccc2c(c1)NC(=O)C1(CCC[C@H](c3ccc(-c4c(F)cccc4OC(F)F)c[n+]3[O-])c3nc-2c(C)[nH]3)CC1 (single isomer, unassigned) [Example 148]",2.5 nM,37.3 nM,–
"COC(=O)Nc1ccc2c(c1)NC(=O)CCCCC(c1cc(OC)c(-c3c(F)ccc(Cl)c3F)c[n+]1[O-])c1cccc-2c1 (single isomer, unassigned) [Example 87-a, 5-(3-Chloro-2,6-difluorophenyl)-4-methoxy-2-(2^4-((methoxycarbonyl)amino)-4-oxo-3-aza-1(1,3),2(1,2) -dibenzenacyclononaphane-9-yl)pyridine 1-oxide]",4.1 nM,12.7 nM,–
"O=C1CCCC[C@H](c2ccc(-c3cc(Cl)ccc3-n3cnnn3)c[n+]2[O-])c2cccc(c2)-c2cc(C(=O)O)ccc2N1 [Example 4-a, 2-(2^5-Carboxy-4-oxo-3-aza-1(1,3),2(1,2)-dibenzenacyclononaphane-9-yl)-5-(5-chloro-2-(1H-tetrazol-1-yl)phenyl)pyridine 1-oxide]",0.31 nM,–,3.41 nM
"C[C@@H]1CCC[C@@H](c2ccc(-c3cc(Cl)ccc3-n3cnnn3)c[n+]2[O-])c2cccc(c2)-c2cc(F)ccc2NC1=O [Example 3-a, 5-(5-chloro-2-(1H-tetrazol-1-yl)phenyl)-2-((5R,9R)-2^5-fluoro-5-methyl-4-oxo-3-aza-1(1,3),2(1,2)-dibenzenacyclononaphane-9-yl)pyridine 1-oxide]",27.7 nM,79.8 nM,–
"N#Cc1cnn(-c2ccc(Cl)cc2-c2ccc([C@H]3CCCCC(=O)Nc4cnn(C(F)F)c4-c4cccc3c4)[n+]([O-])c2)c1 (single isomer, unassigned) [Example 169]",3.8 nM,94.2 nM,–

# More lines, main results first:
Ki [1],"Ki [2, 3]",Structure (SMILES),Ki [2]
0.51 nM,0.49 nM,"COC(=O)Nc1ccc2c(c1)NC(=O)CCCCC(c1ccc(-c3cc(Cl)ccc3-n3cnnn3)c[n+]1[O-])c1nc-2c[nH]1 (single isomer, unassigned) [Example 98-a, (Z)-5-(5-chloro-2-(1H-tetrazol-1-yl)phenyl)-2-(2^4-((methoxycarbonyl)amino)-4-oxo-1^1H-3-aza-1(4,2)-imidazola-2(1,2) -benzenacyclononaphane-9-yl)pyridine 1-oxide]",–
0.22 nM,2.12 nM,"O=C1CCCCC(c2ccc(-c3cc(Cl)ccc3-n3cnnn3)c[n+]2[O-])c2nc(c[nH]2)-c2cc(F)ccc2N1 (single isomer, unassigned) [Example 11-a, (Z)-5-(5-Chloro-2-(1H-tetrazol-1-yl)phenyl)-2-(2^5-fluoro-4-oxo-1^1h-3-aza-1(4,2)-imidazola-2(1,2)-benzenacyclononaphane-9-yl)pyridine 1-oxide]",–
0.34 nM,3.9 nM,"COC(=O)Nc1ccc2c(c1)NC(=O)CCCCC(c1ccc(-c3c(F)cccc3OC(F)F)c[n+]1[O-])c1nc-2c[nH]1 (single isomer, unassigned) [Example 101-a, (Z)-5-(2-(Difluoromethoxy)-6-fluorophenyl)-2-(2^4-((methoxycarbonyl)amino)-4-oxo-1^1H-3-aza-1(4,2)-imidazola-2(1,2) -benzenacyclononaphane-9-yl)pyridine 1-oxide]",–
0.23 nM,0.77 nM,"CCOC(=O)Nc1ccc2c(c1)NC(=O)CCCCC(c1ccc(-c3c(F)ccc(Cl)c3F)c[n+]1[O-])c1nc-2c[nH]1 (single isomer, unassigned) [Example 109-a, (Z)-5-(3-chloro-2,6-difluorophenyl)-2-(2^4-((ethoxycarbonyl)amino)-4-oxo-1^1H-3-aza-1(4,2)-imidazola-2(1,2)-benzenacyclononaphane-9-yl)pyridine 1-oxide]",–
0.26 nM,0.81 nM,"COC(=O)Nc1ccc2c(c1)NC(=O)CCCCC(c1ccc(-c3cc(Cl)ccc3-n3cc(C(F)F)nn3)c[n+]1[O-])c1cccc-2c1 (single isomer, unassigned) [Example 36-a, 5-(5-chloro-2-(4-(difluoromethyl)-1H-1,2,3-triazol-1-yl)phenyl)-2-(2^4-((methoxycarbonyl)amino)-4-oxo-3-aza-1(1,3),2(1,2)-dibenzenacyclononaphane-9-yl)pyridine 1-oxide]",–
1.55 nM,13.6 nM,COC(=O)Nc1ccc2c(c1)NC(=O)CC1CC1CC(c1ccc(-c3c(F)cccc3C(F)F)c[n+]1[O-])c1nc-2c(C)[nH]1 (racemic) [Example 156],–
0.13 nM,3.15 nM,"O=C1CCCCC(c2ccc(-c3c(-n4cnnn4)ccc(Cl)c3F)c[n+]2[O-])c2cccc(c2)-c2cc(C(=O)O)ccc2N1 (single isomer, unassigned) [Example 5-a, 2-(2^5-carboxy-4-oxo-3-aza-1(1,3),2(1,2)-dibenzenacyclononaphane-9-yl)-5-(3-chloro-2-fluoro-6-(1H-tetrazol-1-yl)phenyl)pyridine 1-oxide]",–
1.37 nM,376 nM,"C[C@@H]1CCC[C@H](c2ccc(-c3ccccc3-n3cc(Cl)nn3)c[n+]2[O-])c2cccc(c2)-c2c(cnn2C(F)F)NC1=O (single isomer, unassigned) [Example 172-a]",–
0.24 nM,119 nM,"O=C(C1CCCCC(c2ccc(-c3cc(Cl)ccc3-n3cnnn3)c[n+]2[O-])c2cccc(c2)-c2cc(F)ccc2N1)N1CCCC1 (single isomer, unassigned) [Example 79-b, 5-(5-Chloro-2-(1H-tetrazol-1-yl)phenyl)-2-(2^5-fluoro-4-(pyrrolidine-1-carbonyl)-3-aza-1(1,3),2(1,2)-dibenzenacyclononaphane-9-yl)pyridine 1-oxide]",–
0.35 nM,22.2 nM,"COC(=O)Nc1ccc2c(c1)NC(=O)CCCC[C@H](c1ccc(-c3cc(Cl)ccc3-n3cccn3)c[n+]1[O-])c1nc-2c(C)[nH]1 (single isomer, unassigned) [Example 139]",–
